{
  "source": "patent US4973591A",
  "about": "“Parenteral formulations of 1-diphenylmethyl-4-((2-(4-methylphenyl)-5-methyl-1H-imidazol-4-yl)methyl )piperazine” (Syntex Pharmaceuticals, Ltd., priority 1988, dated 1990)",
  "key": {"[1]": {"experiment": "pH of salt solutions", "format": "physicochemical"}, "[2]": {"test_system": "calcium channel", "conditions": "statement in background; cited from earlier work"}, "[3]": {"experiment": "solubility of active agent, its salts and cosolvent solutions", "conditions": "for solubility (in words): salts of the active agent"}, "[4]": {"test_system": "rat tail vein", "experiment": "rat tail vein injection (irritation / in vivo acceptability)", "experimental": "In vivo acceptability is tested by injecting a small amount of the formulation into the tail vein of a rat or other suitable species, for example, as described by Waynforth, Experimental and Surgical Technique in the Rat, Chapter 2, pages 42-45 (Academic Press, 1980).\nThis procedure is a modification of a procedure described by Waynforth in Experimental and Surgical Technique in the Rat, Chapter 2, pages 42-45 (Academic Press, 1980). The rat tail vein is dilated by warming, and a test formulation administered by injection, using a 25G needle, with the rat held in a restrainer, and a heat source close enough to keep the tail warm during injection. The tail is observed for signs of irritation, which are outwardly apparent and can be detected by the presence of bruising, swelling, lack of flexibility, lumps, or by observation of distress in the animal upon subsequent administration."}, "[5]": {"experiment": "precipitation on dropping the injectable formulation into pH 7.4 phosphate buffer", "format": "physicochemical", "conditions": "approx. 1 ml injectable formulation into 50 ml 0.1M pH 7.4 phosphate buffer"}, "[6]": {"experiment": "stability testing of formulations at 25° C. (content, pH, appearance)", "format": "physicochemical", "experimental": "Stability testing of the formulations is done, for example, as described in Remington's Pharmaceutical Sciences. […] A formulation is prepared and placed in suitable container, storing it at 25° C., and periodically observing the appearance of the samples and removing aliquots to be tested for concentration and pH.\nAt periodic intervals, the appearance of the samples was noted, and aliquots were withdrawn and assayed for active agent concentration and pH."}, "[7]": {"experiment": "compatibility with infusion fluids", "format": "physicochemical", "conditions": "wide range of commercially available infusion fluids", "experimental": "Compatibility with infusion fluids is determined by adding a formulation of the invention to an infusion fluid and inspecting the resulting mixture for formation of any precipitate, discoloration, or the appearance of other physical changes, monitoring the solution active ingredient concentration to ensure no loss in potency, which could lead to decreases in efficacy."}, "[8]": {"test_system": "rats"}, "[9]": {"test_system": "baboons"}, "[10]": {"experiment": "physchem"}, "[11]": {"conditions": "in vivo; cited from earlier work"}},
  "note": "Counter-ions that a name gives are not always drawn.",
  "data": [
    {"smiles": "Cc1ccc(-c2nc(CN3CCN(C(c4ccccc4)c4ccccc4)CC3)c(C)[nH]2)cc1", "values": [
      {"measurement": "pH relative to optimum range for physiological compatibility", "setting": "[1]; when prepared at the desired concentrations", "value": "outside the optimum pH range for physiological compatibility"}
    ]},
    {"smiles": "Cc1ccc(-c2nc(CN3CCN(C(c4ccccc4)c4ccccc4)CC3)c(C)[nH]2)cc1", "note": "[1-Diphenylmethyl-4-[(2-(4-methylphenyl)-5-methyl-1H-imidazol-4-yl)methyl]piperazine]", "values": [
      {"measurement": "calcium channel antagonist", "setting": "[2]", "value": "potent calcium channel antagonist"},
      {"measurement": "solubility problems", "setting": "[3]; particularly at physiological pH, in formulation process and upon administration to test animals", "value": "significant solubility problems"}
    ]},
    {"smiles": "Cc1ccc(-c2nc(CN3CCN(C(c4ccccc4)c4ccccc4)CC3)c(C)[nH]2)cc1.Cl.Cl.Cl", "note": "[1-diphenylmethyl-4-[(2-(4-methylphenyl)-5-methyl-1H-imidazol-4-yl)methyl]piperazine, trihydrochloride]", "values": [
      {"measurement": "signs of pain / irritation upon injection", "setting": "[4]; 8 mg/ml solution, pH about 3-3.5, rat tail vein", "value": "bruising of the vein, hardening of the tail and other signs of pain upon injection"},
      {"measurement": "compound precipitation in rat tail veins", "setting": "[4]; 8 mg/ml solution, pH about 3-3.5 adjusted with sodium hydroxide, shortly after injection", "value": "compound precipitation was observed in rat tail veins shortly after injection"},
      {"measurement": "precipitate at interface", "setting": "[5]", "value": "a white precipitate was observed immediately at the interface between the two liquids"}
    ]},
    {"smiles": "Cc1ccc(-c2nc(CN3CCN(C(c4ccccc4)c4ccccc4)CC3)c(C)[nH]2)cc1", "note": "[ascorbic acid salt]", "values": [
      {"measurement": "discolouration of solutions upon standing", "setting": "[6]; solutions of ascorbic acid salt, on standing", "value": "rapid discolouration upon standing"},
      {"measurement": "solubility (in words)", "setting": "[3]", "value": "relatively insoluble"}
    ]},
    {"smiles": "Cc1ccc(-c2nc(C)c(CN3CCN(C(c4ccccc4)c4ccccc4)CC3)[nH]2)cc1", "note": "[aspartic]", "values": [
      {"measurement": "changes in properties of salts", "setting": "[3]; salts investigated for adequate solubility at physiologically acceptable pH and reduced irritancy", "value": "only moderate changes in properties"}
    ]},
    {"smiles": "Cc1ccc(-c2nc(C)c(CN3CCN(C(c4ccccc4)c4ccccc4)CC3)[nH]2)cc1", "note": "[malonic]", "values": [
      {"measurement": "solubility (in words)", "setting": "[3]", "value": "did not have adequate solubility"}
    ]},
    {"smiles": "Cc1ccc(-c2nc(C)c(CN3CCN(C(c4ccccc4)c4ccccc4)CC3)[nH]2)cc1", "note": "[oxalic]", "values": [
      {"measurement": "solubility (in words)", "setting": "[3]", "value": "did not have adequate solubility"}
    ]},
    {"smiles": "Cc1ccc(-c2nc(CN3CCN(C(c4ccccc4)c4ccccc4)CC3)c(C)[nH]2)cc1", "note": "[sulfuric acid salt]", "values": [
      {"measurement": "pH in solution", "setting": "[1]", "value": 1.76}
    ]},
    {"smiles": "Cc1ccc(-c2nc(CN3CCN(C(c4ccccc4)c4ccccc4)CC3)c(C)[nH]2)cc1.O=C(O)C(O)C(O)C(=O)O", "note": "[tartrate salt, 1-diphenylmethyl-4-[(2-(4-methylphenyl)-5-methyl-1H -imidazol-4-yl)methyl]piperazine tartrate]", "values": [
      {"measurement": "irritancy levels", "setting": "[4]; one week tail vein injection trial", "value": "Acceptable irritancy levels"},
      {"measurement": "pH in solution", "setting": "[1]", "value": "greater than 3.0"},
      {"measurement": "physical and chemical stability of the solution", "setting": "[6]; storage at 25° C.", "value": "at least 12 months"},
      {"measurement": "compatibility with infusion fluids", "setting": "[7]", "value": "compatible with a wide range of commercially available infusion fluids"},
      {"measurement": "administration over 28 days", "setting": "[8]", "value": "successful administration"},
      {"measurement": "administration over 28 days", "setting": "[9]", "value": "successful administration"},
      {"measurement": "solubility", "setting": "[10]", "value": "> 4000", "unit": "µg/mL"}
    ]},
    {"smiles": "Clc1ccccc1CN1CCc2sccc2C1", "note": "[ticlopidine]", "values": [
      {"measurement": "reduction of the risk of a second ischemic event", "setting": "[11]", "value": "demonstrated to reduce the risk of a second ischemic event"}
    ]}
  ]
}
